US20250368628A1, “METHODS AND COMPOUNDS FOR MODULATING INHERITED GENETIC DISEASES” (Design Therapeutics, Inc., priority 2022, published 2025)

Test system: Myotonic Dystrophy 1 affected patient fibroblasts (Coriel GM04602; 1600 CTG repeats)
Assay: DM1 foci reduction assay (EC50 assay; CAG10-Cy3 FISH, foci per nucleus)
Type: cell-based
Details: Homo sapiens, Fibroblast; DM1 patient fibroblasts, 48 h treatment, foci per nucleus; read-out: DM1 EC50, 48 h
Description: DM1 Foci Reduction Assay Methods
Myotonic Dystrophy 1 affected patient fibroblasts (Coriel GM04602; 1600 CTG repeats) and wild type fibroblasts (Coriell GM07492; control line) were cultured separately in Gibco DMEM (1×)+4.5 g/L D-Glucose+L-Glutamine+[…] Sodium Pyruvate, supplemented with 10% FBS and 1× Pen/Strep. Cells were maintained in an incubator at 37° C. and 5% CO2 with media refreshed every 48-72 hours.
At 90-95% confluency, both cell lines were harvested using Trypl-E then pelleted at 500×g for 5 minutes and were resuspended in fresh media. DM1 fibroblasts were seeded in Agilent 96 well black plates at a density of 5,000 cells/well in 200 μL media; and 8 wells were reserved for control fibroblasts. Plates were returned to incubator for 24 hours at 37° C. and 5% CO2.
Compounds were diluted from 10 mM stock to 1 mM in DMSO and then diluted once more to 6 μM (2× concentration) in media. Media was removed from all plates and cells were replenished with 100 μL media. Cells were treated in 8-point dose response, 1:3 fold dilution, 3 μM top dose via addition of 100 μL of 6 μM (2× concentration) compound to the 100 μL media with cells. Plates were returned to incubator for 48 hours at 37° C. and 5% CO2.
Following treatment, compounds were removed, and plates were washed with PBS, then cells were fixed in 75 μL 4% PFA solution for 20 minutes at room temperature. Plates were washed twice with PBS and twice with cold 70% ethanol before permeabilization with 250 μL cold 70% ethanol for 24-72 hours at −20° C.
After permeabilization, plates were washed once with a 30% formamide and 2×SSC buffer and rehydrated in that buffer for 15 minutes at room temperature. Cells were incubated overnight at 37° C. in 75 μL of a hybridization solution containing 30% formamide, 2×SSC, 25 mg/mL dextran sulfate, 2.5 mg/mL BSA, 0.2 μg/mL Herring sperm DNA, 2 mM vanadyl-ribonucleoside complex, and 5 nM CAG10-Cy3 probe.
Plates were washed once with 30% formamide in 2×SSC buffer, then twice with the buffer for 30 minutes at 37° C., 300 RPM in an incubating plate shaker. Cells were stained with 75 μL of 2.5 μg/mL DAPI in PBS for 5 minutes at room temperature. Plates were then washed twice with PBS and stored in 250 μL PBS. Plates were sealed with adhesive foil and wiped down with 70% ethanol.
Cells were imaged on a Cytation5 with a 20× objective sampling from 4 areas of each well. Nuclei were captured under DAPI channel and foci under RFP channel. Plates were analyzed on an average foci per nucleus per well basis.

| Compound | EC50 [nM] |
| --- | --- |
| Cn1cc(NC(=O)c2nc(NC(=O)CCNC(=O)c3cc(NC(=O)c4nccn4C)cn3C)cn2C)cc1C(=O)NCCCC(=O)Nc1cn(C)c(C(=O)NCCC(=O)Nc2cc(C(=O)Nc3cn(C)c(C(=O)NCCC(=O)N4CCC(N5CCN(CCOCCOCCOCCOCCN)CC5)CC4)n3)n(C)c2)n1 [Compound B-24] | > 1000 |
| Cn1cc(NC(=O)c2nc(NC(=O)CCNC(=O)c3cc(NC(=O)c4nccn4C)cn3C)cn2C)cc1C(=O)NCCCC(=O)Nc1cn(C)c(C(=O)NCCC(=O)Nc2cc(C(=O)Nc3cn(C)c(C(=O)NCCC(=O)NCCCCCN4CCC(C#CC#CC5CCN(Cc6ccc(C(C)(C)C)cc6)CC5)CC4)n3)n(C)c2)n1 [Compound B-178] | > 1000 |
| CCCNC(=O)c1cc(NC(=O)c2nc(NC(=O)CCNC(=O)c3cc(NC(=O)c4nc(NC(=O)[C@H](N)CCNC(=O)c5cc(NC(=O)c6nc(NC(=O)CCNC(=O)c7cc(NC(=O)c8nccn8C)cn7C)cn6C)cn5C)cn4C)cn3C)cn2C)cn1C [Compound B-6] | 500 to 1000 |
| Cn1cc(NC(=O)c2nc(NC(=O)CCNC(=O)c3cc(NC(=O)c4nccn4C)cn3C)cn2C)cc1C(=O)NCCCC(=O)Nc1cn(C)c(C(=O)NCCC(=O)Nc2cc(C(=O)Nc3cn(C)c(C(=O)NCCOCCOCCOc4cccc(C(=O)O)c4)n3)n(C)c2)n1 [Compound B-214] | 500 to 1000 |
| COC(=O)c1cccc(CCCCCN(C)CCCNC(=O)c2nc(NC(=O)c3cc(NC(=O)CCNC(=O)c4nc(NC(=O)CCCNC(=O)c5cc(NC(=O)c6nc(NC(=O)CCNC(=O)c7cc(NC(=O)c8nccn8C)cn7C)cn6C)cn5C)cn4C)cn3C)cn2C)c1 [Compound B-340] | < 100 |
| CCN(CC)CCCC[C@@H](NC(C)=O)C(=O)NCCOCCOCCNC(=O)CCNC(=O)c1nc(NC(=O)c2cc(NC(=O)CCNC(=O)c3nc(NC(=O)CCCNC(=O)c4cc(NC(=O)c5nc(NC(=O)CCNC(=O)c6cc(NC(=O)c7nccn7C)cn6C)cn5C)cn4C)cn3C)cn2C)cn1C [Compound B-102] | 500 to 1000 |
| Cn1cc(NC(=O)c2nc(NC(=O)CCNC(=O)c3cc(NC(=O)c4nccn4C)cn3C)cn2C)cc1C(=O)NCCCC(=O)Nc1cn(C)c(C(=O)NCCC(=O)Nc2cc(C(=O)Nc3cn(C)c(C(=O)NCCC(=O)NCCOCCN4CCN(C5CCN(c6ccc([N+](=O)[O-])cc6)CC5)CC4)n3)n(C)c2)n1 [Compound B-26] | > 1000 |
| Cn1cc(NC(=O)c2nc(NC(=O)CCNC(=O)c3cc(NC(=O)c4nccn4C)cn3C)cn2C)cc1C(=O)NCCCC(=O)Nc1cn(C)c(C(=O)NCCC(=O)Nc2cc(C(=O)Nc3cn(C)c(C(=O)NCCC(=O)N4CCC(C#CC#CC5CCN(CCCNC(=O)c6cccc(C(=O)O)c6)CC5)CC4)n3)n(C)c2)n1 [Compound B-225] | 100 to 500 |
| CCCNC(=O)CCNC(=O)c1nc(NC(=O)c2cc(NC(=O)CCNC(=O)c3nc(NC(=O)CCCNC(=O)c4cc(NC(=O)c5nc(NC(=O)CCNC(=O)c6cc(NC(=O)c7nccn7C)cn6C)cn5C)cn4C)cn3C)cn2CCCCCCN=[N+]=[N-])cn1C [Compound B-56] | 100 to 500 |
| Cn1cc(NC(=O)c2nc(NC(=O)CCNC(=O)c3cc(NC(=O)c4nccn4C)cn3C)cn2C)cc1C(=O)NCCCC(=O)Nc1cn(C)c(C(=O)NCCC(=O)Nc2cc(C(=O)Nc3cn(C)c(C(=O)NCCC(=O)Nc4ccc(C(C)(C)C)cc4)n3)n(C)c2)n1 [Compound B-180] | > 1000 |
| COCCOCCOCCOCCN(CCCCCn1cc(NC(=O)c2nc(NC(=O)CCNC(=O)c3cc(NC(=O)c4nccn4C)cn3C)cn2C)cc1C(=O)NCCCC(=O)Nc1cn(C)c(C(=O)NCCC(=O)Nc2cc(C(=O)Nc3cn(C)c(C(=O)NCCC(=O)N4CCC(N5CCNCC5)CC4)n3)n(C)c2)n1)CCOCCOCCOCCOC [Compound B-162] | > 1000 |
| CCCCCCCCCCNC(=O)CCNC(=O)c1nc(NC(=O)c2cc(NC(=O)CCNC(=O)c3nc(NC(=O)CCCNC(=O)c4cc(NC(=O)c5nc(NC(=O)CCNC(=O)c6cc(NC(=O)c7nccn7C)cn6C)cn5C)cn4C)cn3C)cn2C)cn1C [Compound B-40] | < 100 |
| Cn1cc(NC(=O)c2nc(NC(=O)CCNC(=O)c3cc(NC(=O)c4nccn4C)cn3C)cn2C)cc1C(=O)NCCCC(=O)Nc1cn(C)c(C(=O)NCCC(=O)Nc2cc(C(=O)Nc3cn(C)c(C(=O)NCCC(=O)NCCOCCOCCOCCOCCOc4ccc(NC(=O)OCc5ccccc5)cc4)n3)n(C)c2)n1 [Compound B-11] | > 1000 |
| CCCNC(=O)c1nc(NC(=O)c2cc(NC(=O)CCNC(=O)c3nc(NC(=O)CCCNC(=O)c4cc(NC(=O)c5nc(NC(=O)CCNC(=O)c6cc(NC(=O)c7nccn7C)cn6C)cn5C)cn4CCCCCCN=[N+]=[N-])cn3C)cn2C)cn1C [Compound B-231] | 100 to 500 |
| Cn1cc(NC(=O)c2nc(NC(=O)CCNC(=O)c3cc(NC(=O)c4nccn4C)cn3C)cn2C)cc1C(=O)NCCCC(=O)Nc1cn(C)c(C(=O)NCCC(=O)Nc2cc(C(=O)Nc3cn(C)c(C(=O)NCCC(=O)NCCOCCOCCOCCN4CCC(C#CC#CC5CCN(Cc6ccc(C(C)(C)C)cc6)CC5)CC4)n3)n(C)c2)n1 [Compound B-176] | > 1000 |
| CCN(CC)CCCC[C@@H](NC(=O)C1CCNCC1)C(=O)NCCOCCOCCOCCOCCOCCNC(=O)CCNC(=O)c1nc(NC(=O)c2cc(NC(=O)CCNC(=O)c3nc(NC(=O)CCCNC(=O)c4cc(NC(=O)c5nc(NC(=O)CCNC(=O)c6cc(NC(=O)c7nccn7C)cn6C)cn5C)cn4C)cn3C)cn2C)cn1C [Compound B-101] | > 1000 |
| Cn1cc(NC(=O)c2nc(NC(=O)CCNC(=O)c3cc(NC(=O)c4nccn4C)cn3C)cn2C)cc1C(=O)NCCCC(=O)Nc1cn(C)c(C(=O)NCCC(=O)Nc2cc(C(=O)Nc3cn(C)c(C(=O)NCCC(=O)N4CC(c5cnc(CN(CCCCO)CCCCO)[nH]5)C4)n3)n(C)c2)n1 [Compound B-70] | 100 to 500 |
| Cn1cc(NC(=O)c2nc(NC(=O)CCNC(=O)c3cc(NC(=O)c4nccn4C)cn3C)cn2C)cc1C(=O)NCCCC(=O)Nc1cn(C)c(C(=O)NCCC(=O)Nc2cc(C(=O)Nc3cn(C)c(C(=O)NCCC(=O)N4CCC(C#CC5(O)CCN(C(=O)OCC6c7ccccc7-c7ccccc76)CC5)CC4)n3)n(C)c2)n1 [Compound B-197] | 500 to 1000 |
| Cn1cc(NC(=O)c2nc(NC(=O)CCNC(=O)c3cc(NC(=O)c4nccn4C)cn3C)cn2C)cc1C(=O)NCCCC(=O)Nc1cn(C)c(C(=O)NCCC(=O)Nc2cc(C(=O)Nc3cn(C)c(C(=O)NCCC(=O)N4CCN(CC5CCNCC5)CC4)n3)n(C)c2)n1 [Compound B-114] | 500 to 1000 |
| Cn1cc(NC(=O)c2nc(NC(=O)CCNC(=O)c3cc(NC(=O)c4nccn4C)cn3C)cn2C)cc1C(=O)NCCCC(=O)Nc1cn(C)c(C(=O)NCCC(=O)Nc2cc(C(=O)Nc3cn(C)c(C(=O)NCCC(=O)NCCOCCOCCOc4ccc(NC(=O)OCc5ccccc5)cc4)n3)n(C)c2)n1 [Compound B-13] | > 1000 |
| Cn1cc(NC(=O)c2nc(NC(=O)CCNC(=O)c3cc(NC(=O)c4nccn4C)cn3C)cn2C)cc1C(=O)NCCCC(=O)Nc1cn(C)c(C(=O)NCCC(=O)Nc2cc(C(=O)Nc3cn(C)c(C(=O)NCCC(=O)NCCCN=C(N)N)n3)n(C)c2)n1 [Compound B-34] | 500 to 1000 |
| COCCOCCOCCOCCOCCOCCNC(=O)c1nc(NC(=O)c2cc(NC(=O)CCNC(=O)c3nc(NC(=O)CCCNC(=O)c4cc(NC(=O)c5nc(NC(=O)CCNC(=O)c6cc(NC(=O)c7nccn7C)cn6C)cn5C)cn4C)cn3C)cn2C)cn1C [Compound B-204] | 500 to 1000 |
| Cn1cc(NC(=O)c2nc(NC(=O)CCNC(=O)c3cc(NC(=O)c4nccn4C)cn3C)cn2C)cc1C(=O)NCCCC(=O)Nc1cn(C)c(C(=O)NCCC(=O)Nc2cc(C(=O)Nc3cn(C)c(C(=O)NCCC(=O)NCCO)n3)n(C)c2)n1 [Compound B-51] | 100 to 500 |
| Cn1cc(NC(=O)c2nc(NC(=O)CCNC(=O)c3cc(NC(=O)c4nccn4C)cn3C)cn2C)cc1C(=O)NCCCC(=O)Nc1cn(C)c(C(=O)NCCC(=O)Nc2cc(C(=O)Nc3cn(C)c(C(=O)NCCC(=O)NCC#CC#CC4CCN(Cc5ccc(C(C)(C)C)cc5)CC4)n3)n(C)c2)n1 [Compound B-189] | > 1000 |

Same assay, conditions: Homo sapiens, Fibroblast; DM1 patient fibroblasts, foci per nucleus, 48 h treatment; read-out: DM1 EC50, 48 h

| Compound | EC50 [nM] |
| --- | --- |
| CN(C)CCCCNC(=O)c1nc(NC(=O)c2cc(NC(=O)CCNC(=O)c3nc(NC(=O)CC4(CNC(=O)c5cc(NC(=O)c6nc(NC(=O)CCNC(=O)c7cc(NC(=O)c8nccn8C)cn7C)cn6C)cn5C)CC4)cn3C)cn2C)cn1C [Compound B-434] | < 100 |
| CC(C)n1cc(NC(=O)c2nc(NC(=O)CCNC(=O)c3cc(NC(=O)c4nccn4C)cn3C)cn2C)cc1C(=O)NCC1(CC(=O)Nc2cn(C)c(C(=O)NCCC(=O)Nc3cc(C(=O)Nc4cn(C)c(C(=O)NCCCCN(C)C)n4)n(C)c3)n2)CC1 [Compound B-441] | < 100 |
